The values that follow come from patent publication US8168199B2, “Dipeptidyl peptidase IV inhibitors for the treatment of schizophrenia and depression” (priority 2000, dated 2012).

“Also recorded” adds a separate entry of the source.

Assay [1] has as its system Male WistarF/Han (WF) rats. In words: 1 h and 12 h food-intake after i.c.v. P32/98 and NPY (Example 3). Format: in vivo, rat. As for the experimental part: (§1) Animals. Male WistarF/Han (WF) rats (Central Animal Laboratory, Hannover Medical School, Hannover, Germany, weighing 330-370 g, were housed in a sound-proof, temperature controlled (24.0±0.5° C.) room under specific pathogen free conditions with a 12/12 h dark/light cycle (lights on at 07.00 with illumination level of 80 Lux). Food (Altromin lab chow pellets) and tap water were available ad libitum. Under ketamine/xylasine (100/5 mg/kg, i.p.) anesthesia, the rats were fixed in a Kopf stereotaxic frame and implanted with cannulae (Plastic One, Inc., Roanoke, Va., USA) above the lateral ventricle. All research and animal care procedures were approved by the Lower Saxony district government (Hannover, Germany) and followed principles described in the European Community's Council Directive of 24 Nov. 1986 (86/609/EEC).
Surgery and i.c.v. application. For surgery, rats were anesthetized and prepared with i.c.v. cannulae (coordinates: A: −0.7 mm caudal, L: 1.4 mm lateral to bregma; and V3.2 mm ventral to the skull surface; tooth bar +3.0 above ear bars) using standard stereotaxic procedures as described in detail elsewhere (von Hörsten et al., 1998a, b, c). After a 7-day recovery period, successful ventricle cannulation was confirmed by an angiotensin drinking response (von Hörsten et al., 1998a). Rats showing a positive drinking response (n=59) were then habituated to experimental handling by daily sham injections for seven days.
Animals were randomly divided into two sets of four experimental groups (n=5-6/group), which completed different consecutive SI test of anxiety. […] The time spent in active social interaction (SI-time), 1 h and 12 h food-intake were measured. […]
Statistical analysis. Data from repeated observations (food intake) were analyzed by two-way analyses of variance for repeated measures (ANOVA) (factors: “substrain” and “food intake” as repeated measure). Data obtained from simple measures such as DPIV activity or SI time were analyzed by one-way (factor: “substrain”) ANOVA. […]

Assay [2] has as its system Male WistarF/Han (WF) rats. In words: Response to novelty (Open field test), i.c.v. P32/98. Format: in vivo, rat. Here is the method: as §1, with “350-390” for “330-370”
Surgery and i.c.v. application. For surgery, rats were anesthetized and prepared with i.c.v. cannulaes (coordinates: A: −0.7 mm caudal, L: 1.4 mm lateral to bregma; and V: 3.2 mm ventral to the skull surface; tooth bar +3.0 above ear bars) using standard stereotaxic procedures as described in detail elsewhere (von Hörsten et al., 1998a,b,c). […]
Response to novelty (Open field test). […] Spontaneous activity during a single continuous test session of 15 min was recorded using a video path analyzer system (E61-21 Video Path Analyser system, Coulbourn instruments, PA, U.S.A.). […] Furthermore, the total incidence of fecal boli was counted after each session and the incidence and duration (sec) of grooming behavior was simultaneously recorded from a video monitor by a person blind to the treatment of the animals (von Hörsten et al., 1998c).
Statistical analysis. For statistical analysis, behavioral raw data from every test minute were analyzed by two-way analyses of variance (ANOVA) for repeated measures (factors: treatment and time as a repeated measurement). Data obtained as totals from a session were analyzed by one-way (factor: treatment) ANOVA. […]

In the case of `CC[C@H](C)[C@H](N)C(=O)N1CCSC1` [P32/98], in assay [1] (i.c.v.), the “dose at which the 1 h feeding effect reached significance” value turned out to be 0.05 nmol. Further, in assay [1] (i.c.v. P32/98 5 pmol-500 nmol, NPY 50 pmol-1.6 nmol, dark cycle), the “amount of food eaten within 1 h” value is given as “mild feeding effect”. The “activity in the open field (distance traveled)” value in assay [2] (i.c.v. 0.05, 5, 500 nmol, 60 min before test, four consecutive minutes, vs aCSF) is given as “no effect on activity; also recorded: no significant effect”. Also, the “time spent close to the wall in the open field” value in assay [2] (i.c.v. 0.05, 5, 500 nmol, 60 min before test, sum of four consecutive minutes, vs aCSF) was “dose-dependent reduction; also recorded: significant effect”. Moreover, the “dosage already effective on time spent close to the wall” value in assay [2] (i.c.v., open field) is given as 50 pmol.
